Data as given in patent US4563472A, “Iodoallyl and iodopropargyl substituted tetrazoles and anti-microbial compositions thereof” (Meiji Seika Kaisha, Ltd., priority 1982, dated 1986).
Values after ≈ are worked out from the molar mass of the structure shown. Like-named read-outs stand apart in the source and are kept apart here.

Columns and labels:
[1] = test system: Trichophyton mentagrophytes; assay: Therapeutic experiment on trichophytosis in guinea pigs, visual observation; type: in vivo, guinea pigs (White Hartly-strain); conditions: 1% preparation, 0.25 ml once per day, 8 consecutive days
[2] = test system: Trichophyton mentagrophytes; assay: Reducing culture positive rate of skin slices from infected guinea pigs; type: in vivo, guinea pigs (White Hartly-strain); set-up: concentration or dose not given beside the values; conditions: after 8 days application, non-treated 100
[3] = test system: Trichoderma T-1 ATCC 9645; assay: Antifungal Activity (in Industrial Field), MIC; type: cell-based; conditions: ATCC9645, read-out: Minimal Inhibitory Conc. (MIC)
[4] = test system: Trichophyton metagrophytes 530324; assay: Antifungal Activity (in Medicinal Field), MIC; type: cell-based
[5] = test system: Trichophyton interdigitale; assay: Antifungal Activity (in Medicinal Field), MIC; type: cell-based; conditions: read-out: Minimal Inhibitory Conc. (MIC)
[6] = test system: Aspergillus fumigatus Saito; assay: Antifungal Activity (in Medicinal Field), MIC; type: cell-based; conditions: read-out: Minimal Inhibitory Conc. (MIC)
[7] = test system: Aspergillus flavus ATCC 6275; assay: Antifungal Activity (in Industrial Field), MIC; type: cell-based; conditions: ATCC6275, read-out: Minimal Inhibitory Conc. (MIC)
[8] = test system: Aspergillus fumigatus IAM 2621; assay: Antifungal Activity (in Industrial Field), MIC; type: cell-based; conditions: IAM2621, read-out: Minimal Inhibitory Conc. (MIC)
[9] = test system: Pullularia pullulans IAM F-24; assay: Antifungal Activity (in Industrial Field), MIC; type: cell-based
[10] = test system: Aspergillus terreus PQMD 82 j; assay: Antifungal Activity (in Industrial Field), MIC; type: cell-based; conditions: PQMD82J, read-out: Minimal Inhibitory Conc. (MIC)
Candida alubicans GA-24 = assay: Antifungal Activity (in Medicinal Field), MIC; type: cell-based
[11] = test system: Cladosporium herbarum IAM F-517; assay: Antifungal Activity (in Industrial Field), MIC; type: cell-based; conditions: IAMF517, read-out: Minimal Inhibitory Conc. (MIC)
Mucor spinescens IAM Mu3 = assay: Antifungal Activity (in Industrial Field), MIC; type: cell-based; conditions: IAMMU3, read-out: Minimal Inhibitory Conc. (MIC)
[12] = test system: Cryptococcus neoformans Cr-1; assay: Antifungal Activity (in Medicinal Field), MIC; type: cell-based; conditions: CR1, read-out: Minimal Inhibitory Conc. (MIC)
[13] = test system: Chaetomium globosum ATCC 6205; assay: Antifungal Activity (in Industrial Field), MIC; type: cell-based; conditions: ATCC6205, read-out: Minimal Inhibitory Conc. (MIC)
[14] = test system: Rhizopus nigricans S.N. 32; assay: Antifungal Activity (in Industrial Field), MIC; type: cell-based; conditions: Rhizopus stolonifer, read-out: Minimal Inhibitory Conc. (MIC)
[15] = test system: Penicillium luteum ATCC 9644; assay: Antifungal Activity (in Industrial Field), MIC; type: cell-based; conditions: Ascospirella lutea, ATCC9644, read-out: Minimal Inhibitory Conc. (MIC)
Gibberella fujikuroi = assay: Antibacterial and Antifungal Activities (in Agricultural Field), MIC; type: cell-based; conditions: Fusarium fujikuroi, read-out: Minimal Inhibitory Conc. (MIC)
Alternaria kikuchiana = assay: as above; type: cell-based; conditions: read-out: Minimal Inhibitory Conc. (MIC)
Pellicularia filamentosa = assay: as above; type: cell-based; conditions: read-out: Minimal Inhibitory Conc. (MIC)
[16] = test system: Fusarium oxysporum f. lycopersici; assay: as above; type: cell-based; conditions: read-out: Minimal Inhibitory Conc. (MIC)
Cochliobolus miyabeanus = assay: as above; type: cell-based; conditions: Bipolaris oryzae, read-out: Minimal Inhibitory Conc. (MIC)
[17] = test system: Xanthomonas campestris pv. oryzae; assay: microbe, parasite or virus in culture; type: cell-based; conditions: read-out: Minimal Inhibitory Conc. (MIC)
[18] = test system: Colletotrichum lagenarium; assay: Antibacterial and Antifungal Activities (in Agricultural Field), MIC; type: cell-based; conditions: Colletotrichum orbiculare, read-out: Minimal Inhibitory Conc. (MIC)
Glomerella cingulata = assay: as above; type: cell-based; conditions: Colletotrichum gloeosporioides, read-out: Minimal Inhibitory Conc. (MIC)
Botrytis cinerea = assay: as above; type: cell-based; conditions: read-out: Minimal Inhibitory Conc. (MIC)
Erwinia carotovora = assay: as above; type: cell-based; conditions: Pectobacterium carotovorum, read-out: Minimal Inhibitory Conc. (MIC)
Diaporithe citri = assay: as above; type: cell-based; conditions: read-out: Minimal Inhibitory Conc. (MIC)
[19] = test system: Xanthomonas campestris pv. citri; assay: as above; type: cell-based; conditions: read-out: Minimal Inhibitory Conc. (MIC)
[20] = test system: Corynebacterium michiganense; assay: as above; type: cell-based; conditions: Clavibacter michiganensis; Corynebacterium michiganense; read-out: Minimal Inhibitory Conc. (MIC)
[21] = test system: Pseudomonas syringae pv. tabaci; assay: as above; type: cell-based; conditions: read-out: Minimal Inhibitory Conc. (MIC)
Phricularia oryzae = assay: as above; type: cell-based; conditions: read-out: Minimal Inhibitory Conc. (MIC)
[22] = Trichophyton, 530324, read-out: Minimal Inhibitory Conc. (MIC)
[23] = IAMF24, Pullularia pullulans IAM F-24, read-out: Minimal Inhibitory Conc. (MIC)
[24] = Candida, GA24, read-out: Minimal Inhibitory Conc. (MIC)
[25] = Trichophyton metagrophytes 530324, read-out: Minimal Inhibitory Conc. (MIC)
[26] = GA24, Candida alubicans GA-24, read-out: Minimal Inhibitory Conc. (MIC)

Row | Compound | MIC [3] [µg/mL] | MIC [5] [µg/mL] | MIC [6] [µg/mL] | MIC [7] [µg/mL] | MIC [8] [µg/mL] | MIC [9, 23] [µg/mL] | MIC [10] [µg/mL] | MIC [11] [µg/mL] | MIC (Mucor spinescens IAM Mu3) [µg/mL] | MIC [12] [µg/mL] | MIC [13] [µg/mL] | MIC [14] [µg/mL] | MIC [15] [µg/mL] | MIC [4, 25] [µg/mL] | MIC (Candida alubicans GA-24; [26]) [µg/mL] | further results
1 | O=[N+]([O-])c1c(Cl)cccc1-c1c[nH]cc1Cl [pyrrolnitrin, 3-chloro-4-(2'-nitro-3'-chlorophenyl)pyrrole, reference compound] |  |  |  |  |  |  |  |  |  |  |  |  |  |  |  | Therapeutic Effect: Thickening [1]: effective; Reducing Culture Positive Rate ([2]; 3 days culture): 62%; Reducing Culture Positive Rate ([2]; 5 days culture): 87%; Reducing Culture Positive Rate ([2]; 7 days culture): 87%
2 | IC#CCn1cncn1 [1-(1'-iodopropyn-3'-yl)-1,2,4-triazole] | 3.13 (≈ 13.4 µM) | 0.78 (≈ 3.35 µM) | 0.78 (≈ 3.35 µM) | 6.25 (≈ 26.8 µM) | 50 (≈ 215 µM) | 3.13 (≈ 13.4 µM) | 0.39 (≈ 1.67 µM) | 3.13 (≈ 13.4 µM) | 6.25 (≈ 26.8 µM) | 0.78 (≈ 3.35 µM) | 25 (≈ 107 µM) | 3.13 (≈ 13.4 µM) | 3.13 (≈ 13.4 µM) |  |  | MIC [4, 22]: 1.56 µg/mL (≈ 6.69 µM); MIC (Candida alubicans GA-24; [24]): 3.12 µg/mL (≈ 13.4 µM)
3 | O=[N+]([O-])c1cn(CC#CI)c(Cl)c1Cl [1-(1'-iodopropyn-3'-yl)-2,3-dichloro-4-nitropyrrole] | 3.12 (≈ 9.05 µM) | 0.39 (≈ 1.13 µM) | 0.39 (≈ 1.13 µM) | 0.39 (≈ 1.13 µM) | < 0.09 | 6.25 (≈ 18.1 µM) | 0.39 (≈ 1.13 µM) | 6.25 (≈ 18.1 µM) | 0.39 (≈ 1.13 µM) | 1.56 (≈ 4.52 µM) | 1.56 (≈ 4.52 µM) |  | 0.78 (≈ 2.26 µM) | 0.09 (≈ 0.261 µM) | 0.78 (≈ 2.26 µM) | MIC (Gibberella fujikuroi): 1.56 µg/mL (≈ 4.52 µM); MIC (Alternaria kikuchiana): 0.78 µg/mL (≈ 2.26 µM); MIC (Pellicularia filamentosa): > 50 µg/mL; MIC [16]: 3.12 µg/mL (≈ 9.05 µM); MIC (Cochliobolus miyabeanus): 12.5 µg/mL (≈ 36.2 µM); MIC [17]: 0.39 µg/mL (≈ 1.13 µM); MIC [18]: 1.56 µg/mL (≈ 4.52 µM); MIC (Glomerella cingulata): 0.19 µg/mL (≈ 0.551 µM); MIC (Botrytis cinerea): 0.39 µg/mL (≈ 1.13 µM)
4 | O=[N+]([O-])c1cc(Cl)n(CC#CI)c1 [1-(1'-iodopropyn-3'-yl)-2-chloro-4-nitropyrrole] | 3.12 (≈ 10 µM) |  |  | 0.39 (≈ 1.26 µM) | 0.19 (≈ 0.612 µM) | 1.56 (≈ 5.02 µM) | 0.19 (≈ 0.612 µM) | 1.56 (≈ 5.02 µM) | 0.78 (≈ 2.51 µM) |  | 12.5 (≈ 40.3 µM) |  | 0.39 (≈ 1.26 µM) |  |  | 
5 | IC#CCn1cnnn1 [1-(1'-iodopropyn-3'-yl)tetrazole] | 0.78 (≈ 3.33 µM) | 0.78 (≈ 3.33 µM) | 0.39 (≈ 1.67 µM) | 1.56 (≈ 6.67 µM) | 12.5 (≈ 53.4 µM) | 1.56 (≈ 6.67 µM) | 0.2 (≈ 0.855 µM) | 1.56 (≈ 6.67 µM) | 3.13 (≈ 13.4 µM) | 0.39 (≈ 1.67 µM) | 3.13 (≈ 13.4 µM) | 3.13 (≈ 13.4 µM) | 1.56 (≈ 6.67 µM) |  |  | MIC [4, 22]: 0.78 µg/mL (≈ 3.33 µM); MIC (Candida alubicans GA-24; [24]): 1.56 µg/mL (≈ 6.67 µM)
6 | Cc1nnn(CC(I)=C(I)I)n1 [2-(2',3',3'-triiodoallyl)-5-methyltetrazole] | 6.25 (≈ 12.5 µM) | 0.19 (≈ 0.379 µM) | 0.19 (≈ 0.379 µM) | 1.56 (≈ 3.11 µM) | 1.56 (≈ 3.11 µM) |  | 0.39 (≈ 0.777 µM) | 6.25 (≈ 12.5 µM) | 1.56 (≈ 3.11 µM) | 1.56 (≈ 3.11 µM) | 6.25 (≈ 12.5 µM) | 1.56 (≈ 3.11 µM) | 6.25 (≈ 12.5 µM) | 0.19 (≈ 0.379 µM) | 0.78 (≈ 1.55 µM) | MIC (Gibberella fujikuroi): 0.78 µg/mL (≈ 1.55 µM); MIC (Erwinia carotovora): > 100 µg/mL; MIC (Alternaria kikuchiana): 1.56 µg/mL (≈ 3.11 µM); MIC (Diaporithe citri): 0.78 µg/mL (≈ 1.55 µM); MIC [19]: 50 µg/mL (≈ 99.6 µM); MIC (Pellicularia filamentosa): > 100 µg/mL; MIC [20]: 25 µg/mL (≈ 49.8 µM); MIC ([9]; IAMF24, read-out: Minimal Inhibitory Conc. (MIC)): 3.13 µg/mL (≈ 6.24 µM); MIC [16]: 3.13 µg/mL (≈ 6.24 µM); MIC (Cochliobolus miyabeanus): 6.25 µg/mL (≈ 12.5 µM); MIC [21]: > 100 µg/mL; MIC [17]: 6.25 µg/mL (≈ 12.5 µM); MIC (Phricularia oryzae): 3.13 µg/mL (≈ 6.24 µM); MIC [18]: 0.78 µg/mL (≈ 1.55 µM); MIC (Glomerella cingulata): 0.39 µg/mL (≈ 0.777 µM); MIC (Botrytis cinerea): 0.39 µg/mL (≈ 0.777 µM)
7 | Cc1nnnn1CC(I)=C(I)I [1-(2',3',3'-triiodoallyl)-5-methyltetrazole] |  | 0.78 (≈ 1.55 µM) | 0.78 (≈ 1.55 µM) |  |  |  |  |  |  | 6.25 (≈ 12.5 µM) |  |  |  | 0.78 (≈ 1.55 µM) | 3.12 (≈ 6.22 µM) | 
